This is an account of results in patent publication US20250333397A1 (REMIX THERAPEUTICS INC., priority 2021, published 2025).

Common to all, as to type: cell-based, human
The test system of test [1] is HTT mRNA. Briefly: RT-qPCR splicing assay, HTT canonical (CJ) and alternative (AJ) junction mRNA. As to conditions: Homo sapiens; for AC50: read-out: HTT AJ (AC50, increase in AJ mRNA). A digest of the protocol:
(§1)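 A673 (DMEM/10% FBS) or K562 (IMDM/10% FBS) cells treated 24 h at 37 °C with 11-point 3-fold dilutions, top 10 uM final, DMSO ≤0.25%. Lysates read by one-step RT-qPCR for CJ and AJ isoforms, normalized to GAPDH, GUSB or PPIA. ΔΔCt vs DMSO gives RQ via 2^(-ΔΔCt).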
A general note: In qPCR the cycle at which signal appears reflects the starting amount.

The test system of test [2] is MYB mRNA. Briefly: RT-qPCR splicing assay, MYB canonical (CJ) and alternative (AJ) junction mRNA. As to conditions: Homo sapiens; for AC50: read-out: MYB AJ (AC50, increase in AJ mRNA). A digest of the protocol: as §1
Test [3] has as its system SMN2 mRNA. Briefly: RT-qPCR splicing assay panel, SMN2 canonical junction (CJ) mRNA. As to conditions: Homo sapiens. A digest of the protocol: as §1
The test system of test [4] is Target C mRNA. Briefly: RT-qPCR splicing assay panel, Target C canonical junction (CJ) mRNA. The settings on record: Homo sapiens. A digest of the protocol: as §1
Setting [5] is: 24 h, Table 3B, A673 or K562 cells, 24 h treatment.
Where [6] appears, read: 24 h, Table 3B, A673 or K562 cells, 24 h treatment, read-out: HTT CJ (IC50, decrease in CJ mRNA).
[7] abbreviates: Table 4B, gene panel, read-out: HTT (IC50, decrease in CJ mRNA levels).
The mark [8] stands for this setting: 24 h, Table 3B, A673 or K562 cells, 24 h treatment, read-out: MYB CJ (IC50, decrease in CJ mRNA).
Setting [9] is: Table 4B, gene panel, read-out: MYB (IC50, decrease in CJ mRNA levels).
Where [10] appears, read: Table 4B, gene panel, read-out: SMN2 (IC50, decrease in CJ mRNA levels).
Setting [11] is: Table 4B, gene panel, read-out: Target C (IC50, decrease in CJ mRNA levels).
[12] abbreviates: 24 h, Table 3A, A673 or K562 cells, 24 h treatment.
[13] abbreviates: 24 h, Table 3A, A673 or K562 cells, 24 h treatment, read-out: HTT CJ (IC50, decrease in CJ mRNA).
Setting [14] is: canonical junction (CJ) mRNA, RT-qPCR panel, Table 4A, read-out: HTT, decrease in CJ mRNA levels, IC50.
The mark [15] stands for this setting: 24 h, Table 3A, A673 or K562 cells, 24 h treatment, read-out: MYB CJ (IC50, decrease in CJ mRNA).
Setting [16] is: canonical junction (CJ) mRNA, RT-qPCR panel, Table 4A, read-out: MYB, decrease in CJ mRNA levels, IC50.
Where [17] appears, read: canonical junction (CJ) mRNA, RT-qPCR panel, Table 4A, read-out: SMN2, decrease in CJ mRNA levels, IC50.
The mark [18] stands for this setting: canonical junction (CJ) mRNA, RT-qPCR panel, Table 4A, read-out: Target C, decrease in CJ mRNA levels, IC50.

The structures appear in SMILES notation. Where two headings read alike, the source gives them in different places. Some results are limits rather than exact numbers.

As usually defined, the AC50 is the concentration at which the activity in the assay is half-maximal. For orientation: IC50 means the concentration that gives 50% inhibition.

With `Cc1nc2cc(O)c(-c3ccc(N4CC[C@H](NC(C)(C)C)C4)nn3)cc2o1` [Compound 813], the AC50 in test [1] (setting [5]) and in test [2] (setting [5]) was 1000 to 10000 nM each time. The IC50 is 100 to 1000 nM in test [1] (setting [6]); 100 to 1000 nM in test [1] (setting [7]); 1000 to 10000 nM in test [2] (setting [8]); 1000 to 10000 nM in test [2] (setting [9]); 100 to 1000 nM in test [3] (setting [10]); 1000 to 10000 nM in test [4] (setting [11]).
In the case of `Cc1nc(C)c(-c2cc(O)c(-c3ccc(N4CC[C@@H](NC5CCC5)C4)nn3)cc2F)s1` [Compound 387], the AC50 in test [1] (setting [12]) and in test [2] (setting [12]) was 1000 to 10000 nM in each case. The IC50 in test [1] (setting [13]) is 100 to 1000 nM; in test [1] (setting [14]), 100 to 1000 nM; in test [2] (setting [15]) it was 1000 to 10000 nM; in test [2] (setting [16]), 1000 to 10000 nM; in test [3] (setting [17]), 100 to 1000 nM; in test [4] (setting [18]) it was 1000 to 10000 nM.
For `Cn1ccc2cc(O)c(-c3ccc(N4CC[C@H](NC(C)(C)C)C4)nn3)cc2c1=O` [Compound 873], the AC50 in test [1] (setting [5]) and in test [2] (setting [5]) was 1000 to 10000 nM each time. The IC50 in test [1] (setting [6]) is 100 to 1000 nM; in test [1] (setting [7]), 100 to 1000 nM; in test [2] (setting [8]), > 10000 nM; in test [2] (setting [9]), > 10000 nM; in test [3] (setting [10]), 100 to 1000 nM; in test [4] (setting [11]) it was 1000 to 10000 nM.
`Cc1ncc(-c2ccc(-c3ccc(N4CC[C@](C)(NCC5CC5)C4)nn3)c(O)c2)s1` (single isomer, unassigned) [Compound 438]: the AC50 in test [1] (setting [12]) and in test [2] (setting [12]) was 100 to 1000 nM each time. The IC50 in test [1] (setting [13]) is < 100 nM; in test [1] (setting [14]) it was < 100 nM; in test [2] (setting [15]), 100 to 1000 nM; in test [2] (setting [16]), 100 to 1000 nM; in test [3] (setting [17]), < 100 nM; in test [4] (setting [18]), 100 to 1000 nM.
With `COc1cc(-c2cc(O)c(-c3ccc(N4CC[C@@H](NC(C)(C)C)C4)nn3)cc2F)cnn1` [Compound 212, 2-{6-[(3R)-3-(tert-butylamino)pyrrolidin-1-yl]pyridazin-3-yl}-4-fluoro-5-(6-methoxypyridazin-4-yl)phenol], the AC50 in test [1] (setting [12]) and in test [2] (setting [12]) was < 100 nM throughout. Also, the IC50 in test [1] (setting [13]), in test [1] (setting [14]), in test [2] (setting [15]), in test [2] (setting [16]), in test [3] (setting [17]) and in test [4] (setting [18]) was < 100 nM in each case.
On to `Oc1cc(-c2cnn3c2CCC3)ccc1-c1ccc(N2CCC(NC3CCC3)C2)nn1` (stereo not drawn) [Compound 362], for which the AC50 in test [1] (setting [12]) fell in the range of 1000 to 10000 nM; in test [2] (setting [12]), 100 to 1000 nM. Besides, the IC50 in test [1] (setting [13]) lay in the range of 100 to 1000 nM; in test [1] (setting [14]), 100 to 1000 nM; in test [2] (setting [15]) it was 1000 to 10000 nM; in test [2] (setting [16]), 1000 to 10000 nM; in test [3] (setting [17]), 100 to 1000 nM; in test [4] (setting [18]) it was 100 to 1000 nM.
Consider `Cc1nc(C)c(-c2cc(O)c(-c3ccc(N4CC[C@H](NC5CCC5)C4)nn3)cc2F)s1` [Compound 386], for which the AC50 in test [1] (setting [12]) and in test [2] (setting [12]) was 1000 to 10000 nM in each case. Moreover, the IC50 in test [1] (setting [13]) fell in the range of 100 to 1000 nM; in test [1] (setting [14]), 100 to 1000 nM; in test [2] (setting [15]), 1000 to 10000 nM; in test [2] (setting [16]) it was 1000 to 10000 nM; in test [3] (setting [17]), 100 to 1000 nM; in test [4] (setting [18]), 1000 to 10000 nM.
Regarding `CC(C)(C)N[C@H]1CCN(c2ccc(-c3ccc(-c4cn[nH]c4)cc3O)nn2)C1` [Compound 261], the values for the AC50 in test [1] (setting [12]) and in test [2] (setting [12]) were < 100 nM and 100 to 1000 nM, respectively. Besides, the IC50 is < 100 nM in test [1] (setting [13]); < 100 nM in test [1] (setting [14]); 100 to 1000 nM in test [2] (setting [15]); 100 to 1000 nM in test [2] (setting [16]); < 100 nM in test [3] (setting [17]); < 100 nM in test [4] (setting [18]).
As for `COc1cc(-c2ccc(-c3ccc(N4CCC(CNC5CCC5)C4)nn3)c(O)c2)cnn1` (stereo in doubt) [Compound 441, 2-{6-[(3S)-3-[(cyclobutylamino)methyl]pyrrolidin-1-yl]pyridazin-3-yl}-5-(6-methoxypyridazin-4-yl)phenol], the AC50 in test [1] (setting [12]) and in test [2] (setting [12]) was 100 to 1000 nM in each case. For the same compound, the IC50 is 100 to 1000 nM in test [1] (setting [13]); 100 to 1000 nM in test [1] (setting [14]); 100 to 1000 nM in test [2] (setting [15]); 100 to 1000 nM in test [2] (setting [16]); < 100 nM in test [3] (setting [17]); 100 to 1000 nM in test [4] (setting [18]).
